# Reference: patent US5594009A, “Fused pyrrolocarbazoles” (priority 1995, dated 1997)
# System: indoleamine 2,3-dioxygenase (IDO) mRNA in THP-1 cells
# Assay: Inhibition of Induction By IFNγ of IDO mRNA
# Assay type: cell-based
# Details: Homo sapiens, compound 400 nM, IFNγ 400 units/ml, IDO/GAPD mRNA ratio, 48 hours, read-out: IDO mRNA, Phosphorimager units, % of IFNγ-treated cells
# Description: Fused pyrrolocarbazoles in accordance with our invention were tested for their ability to inhibit the induction by IFNγ of indoleamine 2,3-dioxygenase (IDO) mRNA in THP-1 cells, a human monocyte cell line.
# Cell Culture: THP-1 cells (American Type Culture Collection, Rockville, Md.), a human monocytic leukemia cell line, were grown in RPMI 1640 medium (Mediatech, Herndon Valley, Va.) with 50 μM 2-mercaptoethanol and 10% fetal bovine serum. Cells were plated in T75 culture flasks, at 4×10^4 cells/cm^2 in 10 ml of medium, and were immediately treated with fused pyrrolocarbazoles at various concentrations. After 30 minutes recombinant (E. coli) IFNγ (Boehringer Mannheim Corporation,Indianapolis, Ind.) was added at 200-400 units/ml. Cells were incubated (37° C., 5% CO2 /95% Air) for 48 hours after treatment.
# RNA Isolation: Cells were pelleted by centrifugation (50× g, 7 min.) and medium was decanted. The cells were then washed two times with phosphate buffered saline pH 7.2 (PBS) (Mediatech, Herndon Valley, Va.). The washed cell pellet was lysed in 2 ml RNAzol B (Tel-Test, Inc., Friendswood, Tex.). RNA was isolated by chloroform extraction, precipitated, and washed following the "RNAzol B isolation of RNA" protocol accompanying this product. RNA was then solubilized in H2 O, and the concentration and purity were determined by reading the absorbance at A260 nm and A280 nm. Finally, the RNA was reprecipitated in ethanol, overnight at -20° C.
# cDNA Probes: Indoleamine 2,3-dioxygenase (IDO) cDNA was received from Sohan L. Gupta, Ph. D. (Hipple Cancer Research Center, Dayton, Ohio) (see Da., W. & Gupta, S. L. 168 Biochem. Biophys. Res. Commun. 1, 1990 and Hassanain, H. H. et al. 268 J. Biol. Chem. 5077, 1993). Glyceraldehyde-3-phosphate dehydrogenase (GAPD) cDNA was obtained through American Type Culture Collection (Rockville, Md.). These cDNA's were produced and purified using standard methods (see, Sambrook, Fritsch, Maniatis (1989) Molecular Cloning a Laboratory Manual/Second Edition 1, 1.21-1.24, 1.74-1.81, hereinafter in this Example, "Maniatis a") using Qiagen plasmid purification kits (Qiagen Inc., Chatsworth, Calif.). DNA concentration and purity were determined by absorbance at 280 nm and 260 nm. Specific DNA inserts were cut out by standard methods using restriction enzymes, and subsequently separated on agarose gels as in Maniatis (see, Sambrook, Fritsch, Maniatis (1989) Molecular Cloning a Laboratory Manual/Second Edition 1, 6.9-6.15, hereinafter in this Example, "Maniatis b"). cDNA probes were further purified for [^32 P] labeling using the Geneclean II DNA purification kit (BIO 101, Inc., La Jolla, Calif.). Probes were labeled with dCTP-α-^32 P (Amersham Corp., Arlington Heights, Ill.) by random primer labeling, using the Prime-a-GeneLabeling System (Promega Corp., Madison, Wis.).
# Analysis and quantification of mRNA: IDO mRNA was detected by Northern blot analysis (see Maniatis a, p. 7.39-7.51) using standard methods. […] Quantification of IDO mRNA was carried out using a phosphorimager (Molecular Dynamics) in which density (i.e., amount of RNA) is expressed as relative phosphorimager units. […] GAPD mRNA measurement by phosphorimager quantification of Northern blots serves as a means to normalize for potential sample to sample differences in the amount of total RNA loaded on gels. […]
smiles,measurement,value
O=C1NCc2c1c1c(c3[nH]c4ccccc4c23)Cc2ccccc2-1 [Compound I-2],mrna remaining at 0.4 µM,55%
